# Assay results: patent US20230381321A1, “CAMPTOTHECIN CONJUGATES” (priority 2022, published 2023)
# pIC50: −log10 of the molar value. Where two headings read alike, the source gives them in different places.
# Columns and labels:
# Format in all cases: cell-based
# [1] = system: renal carcinoma cells (786-O); experiment: In vitro potency (CellTiter-Glo, 96 h) on 786-O; settings: Homo sapiens, 786-0, 96 h, read-out: 786-O IC50
# Procedure: (§1) In vitro potency was assessed on multiple cancer cell lines. All cell lines were authenticated by STR profiling at IDEXX Bioresearch and cultured for no more than 2 months after resuscitation. Cells cultured in log-phase growth were seeded for 24 hours in 96-well plates containing […] RPMI 1640 supplemented with 20% FBS. Serial dilutions of antibody-drug conjugates in cell culture media were prepared at 4x working concentrations, and 50 μL of each dilution was added to the 96-well plates. Following addition of test articles, cells were incubated with test articles for 4 days at […]. After 96 hours, growth inhibition was assessed by CellTiterGlo® (Promega, Madison, WI) and luminescence was measured on a plate reader.
# (§2) Cell viability was determined by CellTiter-Glo staining after 96h exposure to ADC. ND=Not Determined. In the following tables, “Ex_” refers to a drug linker number. For example, “Ag4-Ex_4a” refers to a conjugate of an Ag4 antibody with drug linker 4a.
# melanoma cells (A2058) = experiment: In vitro potency (CellTiter-Glo, 96 h) on A2058; settings: Homo sapiens, A2058, 96 h, CPT free drugs; CellTiter-Glo after 96 h exposure; read-out: A2058 IC50
# Procedure: as §1, §2
# [2] = system: pancreatic cancer cells (BxPC3); experiment: In vitro potency (CellTiter-Glo, 96 h) on BxPC3; settings: Homo sapiens, BXPC-3, 96 h, read-out: BxPC3 IC50
# Procedure: as §1, §2
# [3] = system: anaplastic large cell lymphoma cells (DEL); experiment: In vitro potency (CellTiter-Glo, 96 h) on DEL; settings: 96 h, read-out: DEL IC50
# Procedure: as §1, §2
# [4] = system: anaplastic large cell lymphoma cells (DELBVR); experiment: In vitro potency (CellTiter-Glo, 96 h) on DELBVR; settings: 96 h, read-out: DELBVR IC50
# Procedure: as §1, §2
# [5] = system: anaplastic large cell lymphoma cells (Karpas299); experiment: In vitro potency (CellTiter-Glo, 96 h) on Karpas299; settings: Homo sapiens, KARPAS-299, 96 h, read-out: Karpas299 IC50
# Procedure: as §1, §2
# [6] = system: Hodgkin's lymphoma cells (L540cy); experiment: In vitro potency (CellTiter-Glo, 96 h) on L540cy; settings: L540cy, 96 h, read-out: L540cy IC50
# Procedure: as §1, §2
# [7] = In vitro potency (CellTiter-Glo, 96 h) on Ls174T; settings: Homo sapiens, LS174T, read-out: Ls174T IC50
# Procedure: as §1, §2
# [8] = system: breast cancer cells (MDA-MB-231); experiment: In vitro potency (CellTiter-Glo, 96 h) on MDA-MB-231; settings: Homo sapiens, MDA-MB-231, 96 h, read-out: MDAMB 231 IC50
# Procedure: as §1, §2
# [9] = system: acute myeloid leukemia cells (MOLM-13); experiment: In vitro potency (CellTiter-Glo, 96 h) on MOLM-13; settings: Homo sapiens, MOLM-13, 96 h, read-out: MOLM-13 IC50
# Procedure: as §1, §2
# [10] = system: B-lymphocyte cancer cells (SU-DHL4); experiment: In vitro potency (CellTiter-Glo, 96 h) on SU-DHL4; settings: Homo sapiens, SU-DHL-4, 96 h, read-out: SU-DHL-4 IC50
# Procedure: as §1, §2
# [11] = system: non-small-cell lung cancer cells (Calu1); experiment: In vitro potency (CellTiter-Glo, 96 h) on Calu1; settings: Homo sapiens, Calu-1, 96 h, read-out: Calu1 IC50
# Procedure: as §1, §2
# [12] = CPT free drugs, CellTiter-Glo after 96 h exposure
Compound,pIC50 [1],pIC50 [2],pIC50 [3],pIC50 [4],pIC50 [5],pIC50 [6],pIC50 ([7]; 96 h),pIC50 [8],pIC50 [9],pIC50 [10],other results
CC[C@@]1(O)C(=O)OCc2c1cc1n(c2=O)Cc2c-1nc1cc(F)c(SC)cc1c2CN [Compound 2at],–,–,–,–,–,–,–,–,–,–,"pIC50 [1, 12]: 7.30; pIC50 (melanoma cells (A2058)): 7.70; pIC50 [2, 12]: 7.08; pIC50 [3, 12]: 7.96; pIC50 [4, 12]: 8.10; pIC50 [5, 12]: 7.42; pIC50 [6, 12]: 8.40; pIC50 [7, 12]: 7.52; pIC50 [8, 12]: 7.68; pIC50 [9, 12]: 6.58; pIC50 [10, 12]: 7.64"
CC[C@@]1(O)C(=O)OCc2c1cc1n(c2=O)Cc2c-1nc1cc(F)c(C)c(-c3ccc(CO)s3)c1c2CN [Compound 6e],–,–,–,–,–,–,–,–,–,–,pIC50 [11]: 6.81
CC[C@@]1(O)C(=O)OCc2c1cc1n(c2=O)Cc2c-1nc1cc(F)c(C)c(C3=CCSCC3)c1c2CN [Compound 6m],–,–,–,–,–,–,–,–,–,–,"pIC50 (melanoma cells (A2058)): 8.15; pIC50 [11, 12]: 7.46; pIC50 [3, 12]: 8.70; pIC50 [4, 12]: 8.22; pIC50 [5, 12]: 7.92; pIC50 [6, 12]: 8.10; pIC50 [7, 12]: 7.66; pIC50 [8, 12]: 7.42; pIC50 [9, 12]: 8.15; pIC50 [10, 12]: 8.30"
CC[C@@]1(O)C(=O)OCc2c1cc1n(c2=O)Cc2c-1nc1cc3c(cc1c2CNCCCN1CCNCC1)OCO3 [Compound 8d],7.82,7.85,8.70,8.70,8.05,8.22,7.72,7.60,7.43,8.22,–
CC[C@@]1(O)C(=O)OCc2c1cc1n(c2=O)Cc2c-1nc1cc3c(cc1c2CNC1CCNCC1)OCO3 [Compound 8e],6.98,7.21,8.15,8.00,7.14,7.44,6.96,6.99,7.05,7.60,–
CC[C@@]1(O)C(=O)OCc2c1cc1n(c2=O)Cc2c-1nc1cc3c(cc1c2CN1CCC(N)CC1)OCO3 [Compound 8f],6.57,6.78,7.85,7.52,6.96,7.08,6.63,6.68,7.49,7.49,–
CC[C@@]1(O)C(=O)OCc2c1cc1n(c2=O)Cc2c-1nc1cc3c(cc1c2CNC(C)=O)CCO3 [Compound 12],7.89,7.92,9.00,9.00,7.62,8.30,7.72,7.57,8.30,9.00,–
CC[C@@]1(O)C(=O)OCc2c1cc1n(c2=O)Cc2c-1nc1cc(F)c(C)c(Cl)c1c2CNC(C)=O [Compound 12a],9.00,8.70,9.70,9.70,9.00,9.40,8.15,8.70,9.00,9.40,–
CC[C@@]1(O)C(=O)OCc2c1cc1n(c2=O)Cc2c-1nc1cc3c(cc1c2CNC(=O)CN)CCO3 [Compound 13],6.86,7.03,8.10,7.68,6.90,7.35,6.71,6.75,7.06,7.74,–
CC[C@@]1(O)C(=O)OCc2c1cc1n(c2=O)Cc2c-1nc1cc(F)c(C)c(Cl)c1c2CNC(=O)CN [Compound 13a],8.22,8.30,9.52,9.00,9.00,9.00,7.36,8.30,8.70,9.00,–
CC[C@@]1(O)C(=O)OCc2c1cc1n(c2=O)Cc2c-1nc1cc(F)c(C)c3c1c2[C@@H](NC(=O)CN)CC3 [Compound 13b],–,–,–,–,–,–,–,–,–,–,"pIC50 [1, 12]: 7.57; pIC50 [2, 12]: 7.68; pIC50 [3, 12]: 9.00; pIC50 [4, 12]: 8.40; pIC50 [5, 12]: 7.96; pIC50 [6, 12]: 8.22; pIC50 [7, 12]: 7.24; pIC50 [8, 12]: 7.52; pIC50 [9, 12]: 7.64; pIC50 [10, 12]: 8.70"
